Reference: US11299543B2, “Use of an anti-PD-1 antibody in combination with an anti-CD30 antibody in cancer treatment” (Bristol-Myers Squibb Company, priority 2016, dated 2022)
Entries after “also recorded” stand apart in the source; their conditions may differ. *1 amine or outer side, *2 acyl side, *3 side chain or, on linkers, in order; H or OH if unused. Where a SMILES comes first, the peptide text is derived from it. [ ]: non-standard residue; d: D form. The star is where a group is joined. Dolaproine = CO[C@@H]([C@@H]1CCCN1)[C@@H](C)C(=O)O; Hexanoyl(6-maleimido) = O=C1C=CC(=O)N1CCCCCC(=O)*; Dil = CC[C@H](C)[C@H](NC)[C@@H](CC(=O)O)OC; PABC = O=C(OCc1ccc(N[*:1])cc1)[*:2]; X1 = C[C@@H](N*)[C@@H](O)c1ccccc1; Cit = NC(=O)NCCC[C@H](N)C(=O)O; NMeV = CN[C@H](C(=O)O)C(C)C

Assays:
wild-type A20 cells [1] = test: immunization with drug-killed A20^hcD30 cells plus anti-PD-1, A20 challenge; type: in vivo, Balb/c mice; settings: anti-PD-1 1 mg/kg i.v. days 6, 9, 14, 17
Description: Balb/c mice were immunized with BV- or MMAE-killed A20^hcD30 cells as described above. 14 days after initial immunization, mice were subcutaneously implanted with 5×10^6 wild-type A20 cells. Anti-murine PD-1 (1 mg/kg, BioLegend) was administered intravenously on days 6, 9, 14, and 17 after A20 tumor challenge.

wild-type A20 cells [2] = test: immunization with drug-killed A20^hcD30 cells, then wild-type A20 challenge; type: in vivo, Balb/c mice; settings: mice immunized with drug-killed A20^hcD30 cells; for tumor growth: 5×10^6 wild-type A20 cells s.c.
Description: A20 mouse lymphoma cells were transfected with plasmid constructs encoding human TNFRSF8 (NM_001243.4) and sgRNA/Cas9 for control under the endogenous promoter of murine Tnfrsf8. Fluorescence activated cell sorting (FACS) yielded a clonal population of A20 cells that stably expressed human CD30, to be referenced as A20^hcD30, in order to be susceptible to brentuximab vedotin treatment.
A20^hcD30 cells were cultured in RPMI 1640 with 10% FBS, 10 mM HEPES, 1 mM sodium pyruvate, penicillin (100 U/ml), and streptomycin (100 μg/ml). A20^hcD30 cells were treated with 1 μg/ml BV or 100 nM mc-vc-MMAE for 4 days. In order to prepare dying cells for immunization, treated A20^hcD30 cells were overlaid atop Histopaque, and centrifuged at 2000 g for 30 minutes. Dead and dying cells were pelleted underneath the Histopaque layer, and viability was assessed to be <20% live cells by trypan blue exclusion. Flash-frozen A20^hcD30 cells were prepared by submerging cells in liquid nitrogen for 10 seconds, followed by immersion in 37° C. water until completely thawed. The liquid nitrogen freeze-thaw process was repeated 5 times. Dead and dying A20^hcD30 cells were resuspended in PBS and 2×10^6 cells were injected into the peritoneum of immune-competent Balb/c mice. 7 days later, mice received a second immunization with dead and dying cells prepared in the same manner.
14 days after initial immunization, mice were subcutaneously implanted with 5×10^6 wild-type A20 cells and monitored for tumor growth. […] As these effects occurred in the absence of any administered therapeutic, the presence of cells killed by BV or MMAE were sufficient to generate long-lasting protective immune memory against subsequent A20 lymphoma challenge.

[3] = tested on: peripheral blood T cell subsets; test: phase 1/2 study NCT02572167, peripheral blood immunophenotyping; type: in vivo, human
Description: FIGS. 7A-7C show peripheral blood immunophenotyping. T helper subsets, such as Tregs, (FIG. 7A), activated CD4^+ T cells (FIG. 7B), and proliferating CD4^+ T cells (FIG. 7C), which were reduced after single agent BV dosing, expanded after BV and nivolumab combination dosing.
(§1) A phase 1/2 study (NCT02572167) is ongoing to assess the safety profile and antitumor activity of BV administered in combination with nivolumab in patients with relapsed or refractory Hodgkin lymphoma (HL). Patients will be treated for up to four 21-day cycles with BV 1.8 mg/kg and nivolumab 3 mg/kg. Patients will be administered 1.8 mg/kg BV on Cycle 1 Day 1, and 3 mg/kg nivolumab on Cycle 1 Day 8. For cycles 2 through 4, BV and nivolumab will be administered on Day 1 of each cycle at the same doses, e.g., 1.8 mg/kg BV and 3 mg/kg nivolumab. Both BV and nivolumab will be administered by IV injection. After completion of the Cycle 4 response assessment (EOT), patients will be eligible to undergo ASCT. Responses were assessed using the 2014 Lugano classification (Cheson et al., J Clin Oncol 2014; 32(27):3059-68).

TARC, IP10, IL-18, IFNγ = test: phase 1/2 study NCT02572167, serum cytokine and chemokine levels; type: in vivo, human
Description: FIGS. 6A-6D show priming of the immune system of patients treated with brentuximab vedotin (BV) in combination with nivolumab.
as §1

[4] = tested on: CD30+ relapsed, refractory peripheral T-cell lymphoma (PTCL); settings: patients treated with BV; cited from earlier work
LCL tumors [5] = test: immune-mediated tumor clearance in the humanized LCL tumor model; type: in vivo, NSG mice
Description: Epstein Barr virus (EBV) transformed lymphoblastoid cell lines (LCL) were implanted subcutaneously into NSG mice. When LCL tumors averaged 250 mm^3, mice received a single suboptimal dose of BV or control hIgG-MMAE (1 mg/kg, i.p). Three days following dosing, 2×10^6 autologous PBMC were adoptively transferred to mice via tail vein injection. Mice received two doses of nivolumab (10 mg/kg, i.p.) 2 and 7 days after adoptive transfer of PBMC. […] The significance of these differences is reflected in a comparison of mean tumor volumes at day 50, during active tumor clearance (FIG. 15B). Taken together, results obtained from this humanized model support the conclusion that in addition to direct tumor cell killing, BV drives an inflammatory response that enhances immune-mediated cellular cytotoxicity and pairs well with nivolumab.

wild-type A20 cells [6] = test: T cell transfer from immunized mice into A20 tumor-bearing NSG mice; type: in vivo
Description: Immune-competent Balb/c mice were immunized with BV-killed or flash-frozen-killed A20^hcD30 cells as previously described. 16 weeks after initial immunization, spleens were harvested from immunized mice or naïve Balb/c mice, and manually homogenized. Splenic homogenates were combined from 4 mice per immunization, and CD3^+ T cells were isolated using EasySep Mouse T cell Enrichment Kit (Stem Cell Technologies). 1×10^6 CD3+ T cells were administered intravenously into A20 tumor-bearing mice.
4×10^6 wild-type A20 cells were subcutaneously implanted into immunodeficient NOD/SCID/γ-chain-deficient (NSG) mice. 5 days after implant, mice harboring tumors˜100 mm^3 were randomized, and received 1×10^6T cells from mice as described above.

[7] = tested on: CD30+ cutaneous T-cell lymphoma (CTCL); settings: patients treated with BV; cited from earlier work
LCL tumors [8] = test: T cell and NK cell infiltration into autologous LCL tumors, humanized mouse model; type: in vivo, NSG mice; settings: single suboptimal dose 1 mg/kg i.p., autologous PBMC transferred
Description: Epstein Barr virus (EBV) transformed lymphoblastoid cell Lines (LCL) were implanted subcutaneously into NSG mice. When LCL tumor volumes reached 250 mm^3, mice received a single suboptimal dose of BV or control hIgG-MMAE (1 mg/kg, i.p). Three days following dosing, 2.0×10^6 autologous peripheral blood mononuclear cells (PBMC) were adoptively transferred to mice via tail vein injection. Eleven days following transfer of PBMC, tumors were harvested, weighed, and manually dissociated through a 70 μm cell strainer. Following centrifugation, individual tumor cell pellets were resuspended in 4 ml of RPMI+10% FCS, and 200 ul of the cell suspension was used for staining and analysis by flow cytometry (FACS). Tumor cell suspensions were stained with Zombie Aqua Viability Dye (Biolegend) followed by staining with fluorescently labeled antibodies targeting human CD19, CD2, CD8, CD4, CD56, human CD45, PD-L1, PD-1, and murine CD45.1 (1:50 dilution, Biolegend) in staining buffer (SB: PBS, 2% FCS, 1% NRS, 0.05% NaN3) at 4° C. for 30 minutes. Cells were washed and resuspended in 120 μl of SB for plate-based FACS using an Attune NXT flow cytometer. All events were collected from 80 μl of sample, and FACS-measured cell concentrations were used to calculate numbers of infiltrating immune cells. CD8^+ T cells were identified as viability dye^neg, hCD45^+, mCD45.1^−, CD2^+, CD8^+ cells. […]

[9] = tested on: CD30+ relapsed, refractory DLBCL; settings: patients treated with BV; cited from earlier work
[10] = tested on: xenograft models of Hodgkin disease; settings: SCID mouse xenograft; cited from earlier work
CD30^+ cell lines = settings: in vitro; cited from earlier work
[11] = monotherapy, every two weeks; MTD not reached; cited from earlier work
PD-1 = molecular target: T1, PD-1 (Homo sapiens, UniProt Q15116); settings: 15 subjects, 0.3 mg/kg to 10 mg/kg nivolumab, across all doses; cited from earlier work
T1 construct: Receptor-occupancy data from 15 subjects who received 0.3 mg/kg to 10 mg/kg dosing with nivolumab indicate that PD-1 occupancy appears to be dose-independent; host or cells: endogenous receptor in dosed subjects
T1 sequence (Q15116 25-288): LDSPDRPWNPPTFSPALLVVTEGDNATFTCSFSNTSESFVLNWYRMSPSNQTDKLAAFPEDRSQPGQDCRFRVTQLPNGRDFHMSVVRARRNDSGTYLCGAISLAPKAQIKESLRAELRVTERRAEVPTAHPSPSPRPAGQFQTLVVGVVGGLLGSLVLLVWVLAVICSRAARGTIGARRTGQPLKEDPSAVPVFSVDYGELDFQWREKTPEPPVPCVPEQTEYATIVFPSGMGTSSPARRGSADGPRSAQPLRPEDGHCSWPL

Q: What does the source list for `CC[C@H](C)[C@@H]([C@@H](CC(=O)N1CCC[C@H]1[C@H](OC)[C@@H](C)C(=O)N[C@H](C)[C@@H](O)c1ccccc1)OC)N(C)C(=O)[C@@H](NC(=O)[C@H](C(C)C)N(C)C(=O)OCc1ccc(NC(=O)[C@H](CCCNC(N)=O)NC(=O)[C@@H](NC(=O)CCCCCN2C(=O)C=CC2=O)C(C)C)cc1)C(C)C` [mc-vc-MMAE] ({Hexanoyl(6-maleimido)}-V[Cit][PABC][NMeV]V[Dil][Dolaproine]-X1)?
A: protective anti-tumor immunity (wild-type A20 cells [1]): conferred protective anti-tumor immunity; survival of tumor-bearing mice (wild-type A20 cells [2]): increased survival; tumor growth (wild-type A20 cells [2]): delayed tumor growth

Q: For “BV: CD30-directed antibody-drug conjugate: chimeric anti-CD30 antibody cAC10, MMAE and a protease-cleavable linker”, which “percentage of CD4+ T regulatory (Treg) cells” value ([3]; Cycle 1 Day 8, preliminary) is on record?
A: decrease

Q: And the “proliferating CD8+ T cells” value ([3]; Cycle 1 Day 8, preliminary)?
A: no effect

Q: What about the “T helper subsets, such as Tregs” value ([3]; peripheral blood) of the same molecule?
A: initial reduction; also recorded: reduced

Q: What about the “activated CD4+ T cells” value ([3]; peripheral blood) of the same molecule?
A: initial reduction; also recorded: reduced

Q: And the “proliferating CD4+ T cells” value ([3]; peripheral blood)?
A: initial reduction; also recorded: reduced

Q: And the “pro-inflammatory cytokine and chemokine levels” value (TARC, IP10, IL-18, IFNγ; after BV dosing, following concurrent BV and nivolumab)?
A: increase

Q: And the “Pro-inflammatory cytokine IL-18 levels” value (TARC, IP10, IL-18, IFNγ; after C1D1 BV dosing, with BV and nivolumab dosing)?
A: significantly higher

Q: And the “T-cell chemokine IP10 levels” value (TARC, IP10, IL-18, IFNγ; after C1D1 BV, following C1D8 nivolumab dosing)?
A: significantly higher

Q: What about the “Serum TARC levels” value (TARC, IP10, IL-18, IFNγ; compared to baseline) of the same molecule?
A: significantly lower

Q: What about the ORR [4] of the same molecule?
A: 41%

Q: What about the tumor rejection (LCL tumors [5]; suboptimal dose 1 mg/kg i.p. without the addition of PBMC) of the same molecule?
A: did not reject tumors

Q: And the immune-mediated tumor clearance (LCL tumors [5]; with autologous PBMC, BV 1 mg/kg i.p., nivolumab 10 mg/kg i.p.)?
A: enhanced immune-mediated tumor clearance

Q: What about the tumor growth (wild-type A20 cells [6]; NSG mice given 1×10^6 T cells from mice immunized with BV-killed cells) of the same molecule?
A: slowed tumor growth

Q: And the “CD8 T cells within the tumor” value (wild-type A20 cells [6]; NSG mice given T cells from mice immunized with BV-killed cells)?
A: increased CD8 T cells within the tumor

Q: What about the ORR [7] of the same molecule?
A: 73%

Q: And the “intratumoral accumulation of human cytotoxic cells” value (LCL tumors [8])?
A: enhanced intratumoral accumulation of human cytotoxic cells

Q: What about the ORR [9] of the same molecule?
A: 44%

Q: What about the protective anti-tumor immunity (wild-type A20 cells [1]) of the same molecule?
A: conferred protective anti-tumor immunity

Q: And the “survival of tumor-bearing mice” value (wild-type A20 cells [2])?
A: increased survival

Q: What about the tumor growth (wild-type A20 cells [2]) of the same molecule?
A: delayed tumor growth

Q: Which results are given for “cAC10: chimeric IgG1 monoclonal antibody that specifically binds CD30”?
A: antitumor activity [10]: pronounced antitumor activity; growth of CD30+ cell lines (CD30^+ cell lines): induces growth arrest

Q: Which results are given for nivolumab?
A: T cells ([3]; Cycle 1, one week after nivolumab dosing (2 weeks after BV dosing)): robust expansion; percentage of CD4+ Th1 cells compared to baseline ([3]; most patients (5 of 6, 83%)): no significant change; maximum tolerated dose (MTD) [11]: > 10 mg/kg; mean occupancy rate (PD-1) (PD-1): 85%; mean plateau occupancy (PD-1) (PD-1): 72%
